Patent publication US3951979A, “New amino propanediol derivatives” (priority 1972, dated 1976)
Where two headings read alike, the source gives them in different places.

How the values were obtained:
[1] = tested on: carotid arterial blood-pressure; experiment: Effect on carotid arterial blood-pressure of the dog anaesthetised with chloralose; format: in vivo; conditions: for Hypotensive effect (in words): in vivo
Protocol: EFFECT ON ARTERIAL BLOOD-PRESSURE This was measured on the dog anaesthetised with chloralose by recording both the extent of, and the duration of, the effect on carotid arterial blood-pressure.

[2] = tested on: mebubarbital-induced sleep; experiment: Potentiation of an inactive dose of a barbiturate (mebubarbital); format: in vivo; conditions: for ED50: 0.25 h, read-out: Barbiturates (potentiation), ED50
apomorphine = experiment: Anti-apomorphic effect in the rat; format: in vivo; parameters: Anti-apomorphine: unit not given here; conditions: for Anti-apomorphine: apomorphine 0.6 mg/kg; for Activity in apomorphine stereotypes (in words): in vivo
cerebral dopamine = experiment: Biochemical dopamine effect on the brain (spectrofluorometric); format: in vivo, mouse (strain OF1); conditions: mouse; for Cerebral dopamine / Cerebral dopamine (result in words): I.P.; for Cerebral dopamine (result in words): dose not given
Protocol: 7. Biochemical dopamine effect on the brain This effect is measured by spectrofluorometric means using the Jobin-Yvon Bearn apparatus, on the brains of mice of the strain OF1.

[3] = Acute toxicity, LD50, oral administration; conditions: in vivo, mouse
Protocol: 1. Acute toxicity -- LD50 -- Oral administration
This was determined upon the mouse by oral administration, the LD50 value being calculated by the method of B. Behrens & C. Karber (Arch F. Exp. Patho. Pharm., volume 177, page 379 (1935) )

rat = experiment: Cataleptic effect, homolateral crossed paws method; format: in vivo; parameters: Catalepsy: unit not given here; conditions: for Catalepsy / Catalepsy, result at stated dose: I.P.; for Cataleptic effect (in words): in vivo
central nervous system = experiment: Effect on the central nervous system, overall psycholeptic/neuroleptic spectrum; conditions: in vivo
Text: EFFECT ON THE CENTRAL NERVOUS SYSTEM
This effect was observed by means of a set of tests of which the most significant are summarised below: […]

[4] = tested on: apomorphine-induced vomiting; experiment: Anti-emetic effect: apomorphine-induced attempted vomits in beagle dogs; format: in vivo; conditions: dog
Protocol: The anti-emetic effect, which may constitute a contributory factor to the main effect, was also systematically tested in accordance with the following procedure:
Dogs of the beagle breed were split up at random into groups of 3 animals. After fasting for 24 hours, the animals were given an empty capsule then, one hour later, received a sub-cutaneous injection of apomorphine hydrochloride (0.3 mg/kg). The number of attempted vomits during 45 minutes was then counted.
After 15 days rest, the same animals were given a capsule identical to that given on the first occasion but containing the product to be tested. The injection of apomorphine was carried out under the same conditions as for the control experiment.

coughing spasms = experiment: Antitussive effect: inhibition of coughing spasms induced by stimulating a laryngeal nerve; format: in vivo, cat; conditions: for Activity of the product (antitussive) / Duration of activity (antitussive): cat; for Dose of pentoxyverine necessary for comparable antitussive effect, relative to compound: versus pentoxyverine
Text: Finally, the compounds of the invention having shown themselves to be powerful antitussive agents, the results of comparative tests for this activity on four compounds of the invention and on pentoxyverine, one of the most powerful antitussive agents at present known, are given below in Table V.
The technique used was the method of R. Domenjoz, Arch. Exp. Pathol. V. Pharmacol. Volume 215, page 19 (1952)
The cat is anaesthetized with ether and tracheotomised.
Coughing spasms are induced by stimulating a laryngeal nerve. After the product to be tested has been administered, fresh stimulation enables the inhibition achieved and its duration to be assessed.

[5] = Canis lupus familiaris, 1.25 mg/kg intravenous
[6] = oral administration, sleep in 50% of animals 15 minutes after product

C#CC(C)(C)OCC(O)CN1CCN(c2ccccc2)CC1 (stereo not shown) [Compound No. 1]
Duration of activity (blood-pressure) ([1]; 1.25 mg/kg intravenous): ≥ 35 min | change in vivo at 1.25 mg/kg [1, 5]: -20.3%

C#CC1(OCC(O)CN2CCN(c3ccccc3)CC2)CCCCC1 (stereo not shown) [Compound No. 2]
ED50 [2, 6]: 100 mg/kg | Anti-apomorphine (apomorphine; subcutaneous): 50 | Cerebral dopamine (cerebral dopamine; at 40 mg/kg): -33% | LD50 [3]: > 600 mg/kg | Catalepsy (rat): 50

C#CC(C)(CC)OCC(O)CN1CCN(c2ccccc2)CC1 (stereo not shown) [Compound No. 3]
Duration of activity (blood-pressure) ([1]; 1.25 mg/kg intravenous): 35 min | change in vivo at 1.25 mg/kg [1, 5]: -21.5% | Hypotensive effect (in words) [1]: markedly hypotensive | Neuroleptic/psycholeptic activity (in words) (central nervous system): only slightly neuroleptic | ED50 [2, 6]: > 100 mg/kg | Cerebral dopamine (cerebral dopamine; at 60 mg/kg): -45% | LD50 [3]: > 600 mg/kg | Catalepsy, result at stated dose (rat; at 40): Inactive

C#CC1(OCC(O)CN2CCN(c3ccc(F)cc3)CC2)CCCCC1 (stereo not shown) [Compound No. 4, 1-3-(1-ethynyl)cyclohexyloxy-2-hydroxy propyl-4-(4-fluorophenyl)piperazine]
Reduction in attempted vomits ([4]; 1 mg/kg subcutaneous): 74% | Duration of activity (blood-pressure) ([1]; 5 mg/kg intravenous): 20 min | change in vivo at 5 mg/kg ([1]; Canis lupus familiaris, 5 mg/kg intravenous): -50% | Neuroleptic/psycholeptic activity (in words) (central nervous system): fairly full spectrum characteristic of neuroleptic activity | ED50 [2, 6]: 20 mg/kg | Anti-apomorphine (apomorphine; O.A.): 92 | Cerebral dopamine (cerebral dopamine; at 10 mg/kg): -50% | Depletion of cerebral mono-amines (in words) (cerebral dopamine; in vivo): depletion of cerebral mono-amines in a manner reminiscent of reserpine | LD50 [3]: 800 mg/kg | Catalepsy (rat): 20

C#CC1(OCC(O)CN2CCN(c3cccc(C(F)(F)F)c3)CC2)CCCCC1 (stereo not shown) [Compound No. 11]
Reduction in attempted vomits ([4]; 10 mg/kg oral): 75% | Duration of activity (blood-pressure) ([1]; 1.25 mg/kg intravenous): 30 min | change in vivo at 1.25 mg/kg [1, 5]: -15% | Hypotensive effect (in words) [1]: slightly hypotensive | Sedative effect (in words) (central nervous system): fairly sedative | ED50 [2, 6]: 90 mg/kg | Anti-apomorphine (apomorphine; O.A.): 15 | Activity in apomorphine stereotypes (in words) (apomorphine): extremely active in apomorphine stereotypes | Cerebral dopamine (result in words) (cerebral dopamine): Inactive | LD50 [3]: 783 mg/kg | Catalepsy, result at stated dose (rat; at 40): Inactive | Cataleptic effect (in words) (rat): slightly cataleptic

C#CC1(OCC(O)CN2CCN(c3ccccc3OC)CC2)CCCCC1 (stereo not shown) [Compound No. 20, 1-3-(1-ethynyl)cyclohexyloxy-2-hydroxy-propyl-4-(2-methoxy)phenylpiperazine]
Reduction in attempted vomits ([4]; 1 mg/kg oral): 100% | Reduction in attempted vomits ([4]; 1 mg/kg subcutaneous): 100% | Inhibition of the emetic effect of apomorphine compared with metoclopramide ([4]; oral administration): superior to that of metoclopramide | Inhibition of the emetic effect of apomorphine compared with metoclopramide ([4]; subcutaneous injection): equal to that of metoclopramide | Duration of activity (blood-pressure) ([1]; 1.25 mg/kg intravenous): ≥ 70 min | change in vivo at 1.25 mg/kg [1, 5]: -35.6% | Hypotensive effect (in words) [1]: especially hypotensive | Sedative effect (in words) (central nervous system): non-sedative | Barbiturates (potentiation), ED50 [2, 6]: Inactive | Anti-apomorphine (apomorphine; I.P.): 5 | Activity in apomorphine stereotypes (in words) (apomorphine): active in apomorphine stereotypes | Cerebral dopamine (result in words) (cerebral dopamine): Inactive | LD50 [3]: 60 mg/kg | Catalepsy, result at stated dose (rat; at 20): Inactive | Cataleptic effect (in words) (rat): non-inducive of catalepsy

C#CC(C)(CC)OCC(O)CN1CCN(CC(OCC)c2ccccc2)CC1 (stereo not shown) [Compound No. 25, 1-3-(1-methyl-1-ethynyl)propoxy-2-hydroxy propyl-4-(2-ethoxy-2-phenyl)ethylpiperazine]
Activity of the product (antitussive) (coughing spasms; 5 mg/kg body weight): 41% | Duration of activity (antitussive) (coughing spasms; 5 mg/kg body weight): > 35 min | Activity of the product (antitussive) (coughing spasms; 7.5 mg/kg body weight): 49% | Duration of activity (antitussive) (coughing spasms; 7.5 mg/kg body weight): 62 min | Activity of the product (antitussive) (coughing spasms; 10 mg/kg body weight): 71% | Duration of activity (antitussive) (coughing spasms; 10 mg/kg body weight): 80 min | Dose of pentoxyverine necessary for comparable antitussive effect, relative to compound (coughing spasms): five times greater

O=C(CCCN1CCC(O)(c2ccc(Cl)cc2)CC1)c1ccc(F)cc1 [Haloperidol, haloperidol, reference compound]
ED50 ([2]; po): 12 mg/kg | Anti-apomorphine (apomorphine; subcutaneous): 0.5 | Cerebral dopamine (cerebral dopamine; at 10 mg/kg): -30% | LD50 [3]: 125 mg/kg | Catalepsy (rat): 1

CCN(CC)CCNC(=O)c1cc(Cl)c(N)cc1OC [Metoclopramide, metoclopramide, reference compound]
Reduction in attempted vomits ([4]; 1 mg/kg subcutaneous): 100% | Reduction in attempted vomits ([4]; 1.5 mg/kg oral): 100%

CCN(CC)CCOCCOC(=O)C1(c2ccccc2)CCCC1 [Pentoxyverine, pentoxyverine, reference compound]
Activity of the product (antitussive) (coughing spasms; 10 mg/kg body weight): 45% | Duration of activity (antitussive) (coughing spasms; 10 mg/kg body weight): 30 min | Activity of the product (antitussive) (coughing spasms; 50 mg/kg body weight): 71% | Duration of activity (antitussive) (coughing spasms; 50 mg/kg body weight): 110 min

C#CC(C)(C)OCC(O)CN1CCN(c2ccc(F)cc2)CC1 (stereo not shown) [compound 5]
Duration of activity (blood-pressure) ([1]; 1.25 mg/kg intravenous): ≥ 35 min | change in vivo at 1.25 mg/kg [1, 5]: -19.5%

C#CC1(OCC(O)CN2CCN(c3ccc(Cl)cc3)CC2)CCCCC1 (stereo not shown) [compound 8]
Reduction in attempted vomits ([4]; 5 mg/kg oral): 76% | ED50 [2, 6]: 50 mg/kg | Cerebral dopamine (cerebral dopamine; at 80 mg/kg): -78% | LD50 [3]: > 600 mg/kg | Catalepsy (rat): 30

C#CC(C)(CC)OCC(O)CN1CCN(c2ccc(F)cc2)CC1 (stereo not shown) [compound 9]
Duration of activity (blood-pressure) ([1]; 1.25 mg/kg intravenous): 20 min | change in vivo at 1.25 mg/kg [1, 5]: -27% | ED50 [2, 6]: > 100 mg/kg | Cerebral dopamine (cerebral dopamine; at 60 mg/kg): -50% | LD50 [3]: > 600 mg/kg | Catalepsy (rat): 60

C#CC(C)(CC)OCC(O)CN1CCN(c2ccccc2OC)CC1 (stereo not shown) [compound 18]
Sedative effect (in words) (central nervous system): non-sedative | ED50 [2, 6]: > 25 mg/kg | Activity in apomorphine stereotypes (in words) (apomorphine): active in apomorphine stereotypes | Anti-apomorphine (apomorphine; subcutaneous): 10 | Cerebral dopamine (cerebral dopamine; at 20 mg/kg): -24% | LD50 [3]: > 200 mg/kg | Catalepsy, result at stated dose (rat; at 40): Inactive | Cataleptic effect (in words) (rat): non-inducive of catalepsy

C#CC1(OCC(O)CN2CCN(CC(OC)c3ccccc3)CC2)CCCCC1 (stereo not shown) [compound 21]
Activity of the product (antitussive) (coughing spasms; 10 mg/kg body weight): 54% | Duration of activity (antitussive) (coughing spasms; 10 mg/kg body weight): 20 min

C#CC1(OCC(O)CN2CCN(CC(OCC)c3ccccc3)CC2)CCCCC1 (stereo not shown) [compound 22]
Activity of the product (antitussive) (coughing spasms; 10 mg/kg body weight): 75% | Duration of activity (antitussive) (coughing spasms; 10 mg/kg body weight): 50 min | Dose of pentoxyverine necessary for comparable antitussive effect, relative to compound (coughing spasms): five times greater

C#CC(C)(C)OCC(O)CN1CCN(CC(OC)c2ccccc2)CC1 (stereo not shown) [compound 23]
Activity of the product (antitussive) (coughing spasms; 10 mg/kg body weight): 31% | Duration of activity (antitussive) (coughing spasms; 10 mg/kg body weight): 25 min

C[C@](N)(Cc1ccc(O)c(O)c1)C(=O)O [αmethyldopa, reference compound]
Duration of activity (blood-pressure) ([1]; 1.25 mg/kg intravenous): 95 min | change in vivo at 1.25 mg/kg [1, 5]: -8.7%
